Test results from US8350027B2, “Dual-acting pyrazole antihypertensive agents” (Theravance, Inc., priority 2009, dated 2013).

Tests used:
human AT1 receptor = target: T1, human AT1 receptor (Homo sapiens, UniProt P30556); experiment: AT1 radioligand binding assay (displacement of [Eu]AngII); settings: membranes of CHO-K1 cells expressing cloned human AT1 receptor; values given as lower bounds; read-out: AT1 pKi (converted)
T1 construct: expressed in transfected cells; host or cells: CHO-K1
T1 sequence (P30556 1-359): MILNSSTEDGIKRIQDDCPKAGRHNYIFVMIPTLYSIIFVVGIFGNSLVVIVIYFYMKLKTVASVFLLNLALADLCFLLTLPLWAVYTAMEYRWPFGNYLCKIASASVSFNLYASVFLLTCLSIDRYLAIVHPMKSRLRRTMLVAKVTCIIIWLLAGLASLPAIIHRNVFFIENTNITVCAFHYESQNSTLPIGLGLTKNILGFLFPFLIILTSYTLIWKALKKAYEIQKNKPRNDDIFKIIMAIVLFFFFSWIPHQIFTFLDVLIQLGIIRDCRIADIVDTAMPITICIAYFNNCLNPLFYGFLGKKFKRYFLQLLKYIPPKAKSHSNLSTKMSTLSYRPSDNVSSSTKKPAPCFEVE
Protocol: A. AT1 and AT2 Radioligand Binding Assays
These in vitro assays were used to assess the ability of test compounds to bind to the AT1 and the AT2 receptors.
Membrane Preparation from Cells Expressing Human AT1 or AT2 Receptors
Chinese hamster ovary (CHO-K1) derived cell lines stably expressing the cloned human AT1 or AT2 receptors, respectively, were grown in HAM's-F12 medium supplemented with 10% fetal bovine serum, 10 μg/ml penicillin/streptomycin, and 500 μg/ml geneticin in a 5% CO2 humidified incubator at 37° C. AT2 receptor expressing cells were grown in the additional presence of 100 nM PD123,319 (AT2 antagonist). When cultures reached 80-95% confluence, the cells were washed thoroughly in PBS and lifted with 5 mM EDTA. Cells were pelleted by centrifugation and snap frozen in MeOH-dry ice and stored at −80° C. until further use.
For membrane preparation, cell pellets were resuspended in lysis buffer (25 mM Tris/HCl pH 7.5 at 4° C., 1 mM EDTA, and one tablet of Complete Protease Inhibitor Cocktail Tablets with 2 mM EDTA per 50 mL buffer (Roche cat.#1697498, Roche Molecular Biochemicals, Indianapolis, Ind.)) and homogenized using a tight-fitting Dounce glass homogenizer (10 strokes) on ice. The homogenate was centrifuged at 1000×g, the supernatant was collected and centrifuged at 20,000×g. The final pellet was resuspended in membrane buffer (75 mM Tris/HCl pH 7.5, 12.5 mM MgCl2, 0.3 mM EDTA, 1 mM EGTA, 250 mM sucrose at 4° C.) and homogenized by extrusion through a 20G gauge needle. Protein concentration of the membrane suspension was determined by the method described in Bradford (1976) Anal Biochem. 72:248-54. Membranes were snap frozen in MeOH-dry ice and stored at −80° C. until further use.
Ligand Binding Assay to Determine Compound Affinities for the Human AT1 and AT2 Angiotensin Receptors
Binding assays were performed in 96-well Acrowell filter plates (Pall Inc., cat.#5020) in a total assay volume of 100 μL with 0.2 μg membrane protein for membranes containing the human AT1 receptor, or 2 μg membrane protein for membranes containing the human AT2 receptor in assay buffer (50 mM Tris/HCl pH 7.5 at 20° C., 5 mM MgCl2, 25 μM EDTA, 0.025% BSA). Saturation binding studies for determination of Kd values of the ligand were done using N-terminally Europium-labeled angiotensin-II ([Eu]AngII, H-(Eu-N^1)-Ahx-Asp-Arg-Val-Tyr-Ile-His-Pro-Phe-OH; PerkinElmer, Boston, Mass.) at 8 different concentrations ranging from 0.1 nM to 30 nM. […] Drugs were dissolved to a concentration of 1 mM in DMSO and from there serially diluted into assay buffer. Non-specific binding was determined in the presence of 10 μM unlabeled angiotensin-II. Assays were incubated for 120 minutes in the dark, at room temperature or 37° C., and binding reactions were terminated by rapid filtration through the Acrowell filter plates followed by three washes with 200 μL ice cold wash buffer (50 mM Tris/HCl pH 7.5 at 4° C., 5 mM MgCl2) using a Waters filtration manifold. Plates were tapped dry and incubated with 50 μl DELFIA Enhancement Solution (PerkinElmer cat.#4001-0010) at room temperature for 5 minutes on a shaker. Filter-bound [Eu]AngII was quantitated immediately on a Fusion plate reader (PerkinElmer) using Time Resolved Fluorescence (TRF). Binding data were analyzed by nonlinear regression analysis with the GraphPad Prism Software package (GraphPad Software, Inc., San Diego, Calif.) using the 3-parameter model for one-site competition. The BOTTOM (curve minimum) was fixed to the value for nonspecific binding, as determined in the presence of 10 μM angiotensin II. Ki values for drugs were calculated from observed IC50 values and the Kd value of [Eu]AngII according to the Cheng-Prusoff equation described in Cheng et al. (1973) Biochem Pharmacol. 22 (23):3099-108. Selectivities of test compounds for the AT1 receptor over the AT2 receptor were calculated as the ratio of AT2Ki/AT1Ki. […]

NEP enzyme = target: T2, NEP enzyme (Homo sapiens, UniProt P08473); experiment: NEP enzyme inhibition assay (fluorogenic peptide substrate); type: biochemical; settings: values given as lower bounds; * = prodrugs, may not exhibit NEP activity in an in vitro assay; read-out: NEP pIC50 (converted)
T2 construct: purchased R&D Systems, Minneapolis, Minn; 1182-ZN
T2 sequence (P08473 52-750 limits assumed): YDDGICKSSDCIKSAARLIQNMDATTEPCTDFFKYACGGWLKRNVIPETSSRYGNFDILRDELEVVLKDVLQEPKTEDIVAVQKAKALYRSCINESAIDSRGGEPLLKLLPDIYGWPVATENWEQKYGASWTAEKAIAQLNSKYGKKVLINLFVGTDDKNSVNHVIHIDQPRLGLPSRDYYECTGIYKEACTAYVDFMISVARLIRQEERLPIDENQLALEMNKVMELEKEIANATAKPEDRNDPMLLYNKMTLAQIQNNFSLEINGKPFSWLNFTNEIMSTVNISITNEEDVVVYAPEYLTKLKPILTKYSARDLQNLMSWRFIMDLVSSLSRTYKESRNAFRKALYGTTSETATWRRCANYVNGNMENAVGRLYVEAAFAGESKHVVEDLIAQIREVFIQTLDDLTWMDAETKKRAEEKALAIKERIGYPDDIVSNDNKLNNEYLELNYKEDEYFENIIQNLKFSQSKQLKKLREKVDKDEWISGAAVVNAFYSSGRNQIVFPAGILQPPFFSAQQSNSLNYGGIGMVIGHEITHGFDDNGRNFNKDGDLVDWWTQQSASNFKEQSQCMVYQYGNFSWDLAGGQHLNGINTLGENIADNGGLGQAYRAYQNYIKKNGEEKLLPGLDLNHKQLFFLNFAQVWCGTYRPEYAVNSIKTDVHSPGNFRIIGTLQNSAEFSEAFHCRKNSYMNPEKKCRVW
Protocol: B. In Vitro Assays for the Quantitation of Inhibitor Potencies (IC50) at Human and Rat NEP, and Human ACE
The inhibitory activities of compounds at human and rat NEP and human ACE were determined using in vitro assays as described below.
Recombinant human NEP and recombinant human ACE were obtained commercially (R&D Systems, Minneapolis, Minn., catalog numbers 1182-ZN and 929-ZN, respectively). The fluorogenic peptide substrate Mca-BK2 (Mca-Arg-Pro-Pro-Gly-Phe-Ser-Ala-Phe-Lys(Dnp)-OH; Johnson et al. (2000) Anal. Biochem. 286: 112-118) was used for the human NEP and ACE assays, and Mca-RRL (Mca-DArg-Arg-Leu-(Dnp)-OH; Medeiros et al. (1997) Braz. J. Med. Biol. Res. 30:1157-1162) was used for the rat NEP assay (both from Anaspec, San Jose, Calif.).
The assays were performed in 384-well white opaque plates at room temperature using the respective fluorogenic peptides at a concentration of 10 μM in assay buffer (50 mM Tris/HCl at 25° C., 100 mM NaCl, 0.01% Tween-20, 1 μM Zn, 0.025% BSA). […] The rat NEP enzyme preparation was used at a concentration that yielded quantitative proteolysis of 3 μM of Mca-RRL within 20 minutes at room temperature.
Test compounds were diluted to 12 concentrations from 10 μM to 20 pM in Assay Buffer. Assays were started by adding 25 μL of enzyme to 12.5 μL of test compound at each of the 12 concentrations. Test compounds were allowed to equilibrate with the enzyme for 10 minutes before 12.5 μL of the fluorogenic substrates were added to initiate the reaction. Reactions were terminated by the addition of 10 μL of 3.6% glacial acetic acid after 20 minutes of incubation.
For sulfhydryl-containing test compounds, the test compounds may be diluted in Assay Buffer containing a 400 μM concentration of tris(2-carboxyethyl)phosphine hydrochloride (Thermo Scientific, Rockford, Ill.) (TCEP). The test compounds are then incubated for 40 minutes at room temperature (to allow for dimer cleavage) before adding the enzyme. Test compounds are then allowed to equilibrate with the enzyme for 20 minutes before adding the fluorogenic substrates. Reactions are terminated as above.
Plates were read on a fluorometer with excitation and emission wavelengths set to 320 nm and 405 nm, respectively. Raw data (relative fluorescence units) were normalized to % activity from the average high readings (no inhibition, 100% enzyme activity) and average low readings (full inhibition, highest inhibitor concentration, 0% enzyme activity) using three standard NEP and ACE inhibitors, respectively. Nonlinear regression of the normalized data was performed using a one site competition model (GraphPad Software, Inc., San Diego, Calif.). Data were reported as pIC50 values.

| SMILES | Ki (human AT1 receptor) | IC50 (NEP enzyme) |
| --- | --- | --- |
| CCCc1cc(C(=O)N[C@@H](CC(=O)NO)Cc2ccccc2)nn1Cc1ccc(-c2ccccc2S(=O)(=O)NC(C)=O)cc1F [Example 6-16, 1-(2′-Acetylsulfamoyl-3-fluorobiphenyl-4-ylmethyl)-5-propyl-1H-pyrazole-3-carboxylic acid ((R)-1-hydroxycarbamoylmethyl-2-phenylethyl)amide] | ≤ 10 nM | ≤ 100 nM |
| CCOc1cc(C(=O)N[C@@H](CS)Cc2ccccc2)nn1Cc1ccc(-c2ccccc2-c2nnn[nH]2)cc1 [Example 3-4, 5-Ethoxy-1-[2′-(1H-tetrazol-5-yl)biphenyl-4-ylmethyl]-1H-pyrazole-3-carboxylic acid ((R)-1-benzyl-2-mercaptoethyl)amide] | ≤ 10 nM | ≤ 100 nM |
| CCCc1cc(C(=O)N[C@@H](CS)Cc2ccccc2)nn1Cc1ccc(-c2ccccc2-c2nnn[nH]2)c(F)c1 [Example 3-11, 1-((2-Fluoro-2′-(1H-tetrazol-5-yl)biphenyl-4-yl)methyl)-N-((R)-1-mercapto-3-phenylpropan-2-yl)-5-propyl-1H-pyrazole-3-carboxamide] | ≤ 10 nM | ≤ 100 nM |
| CCCc1cc(C(=O)N[C@H](Cc2ccccc2)[C@@H](O)C(=O)O)nn1Cc1cnc(-c2ccccc2S(=O)(=O)NC(C)=O)cn1 [Example 17-5, (2R,3R)-3-({1-[5-(2-Acetylsulfamoylphenyl)pyrazin-2-ylmethyl]-5-propyl-1H-pyrazole-3-carbonyl}amino)-2-hydroxy-4-phenylbutyric acid] | ≤ 100 nM | ≤ 100 nM |
| CCCc1cc(C(=O)N[C@H](Cc2ccccc2)[C@@H](O)C(=O)O)nn1Cc1ccc(-c2ccccc2S(=O)(=O)NC(=O)C(C)(C)N)cc1 [Example 7-19, (2R,3R)-3-({1-[2′-(2-Amino-2-methylpropionylsulfamoyl)biphenyl-4-ylmethyl]-5-propyl-1H-pyrazole-3-carbonyl}amino)-2-hydroxy-4-phenylbutyric acid] | ≤ 100 nM | ≤ 1000 nM |
| CCCc1cc(C(=O)N[C@@H](CC(=O)O)Cc2ccccc2Cl)nn1Cc1ccc(-c2ccccc2S(=O)(=O)NC(=O)COC)cc1 [Example 7-18, (R)-4-(2-Chlorophenyl)-3-({1-[2′-(2-methoxyacetylsulfamoyl)biphenyl-4-ylmethyl]-5-propyl-1H-pyrazole-3-carbonyl}amino)butyric acid] | ≤ 10 nM | ≤ 1000 nM |
| CCCc1cc(C(=O)NC(CC(=O)NO)CC(C)C)nn1Cc1ccc(-c2ccccc2S(=O)(=O)NC(C)=O)c(F)c1 (stereo not drawn) [Example 6-21, 1-(2′-Acetylsulfamoyl-2-fluorobiphenyl-4-ylmethyl)-5-propyl-1H-pyrazole-3-carboxylic acid (1-hydroxycarbamoylmethyl-3-methylbutyl)amide] | ≤ 10 nM | ≤ 100 nM |

More lines, now with the values ahead:

| Ki (human AT1 receptor) | IC50 (NEP enzyme) | SMILES |
| --- | --- | --- |
| ≤ 10 nM | ≤ 100 nM | CCCc1cc(C(=O)N[C@H](Cc2ccccc2)[C@@H](O)C(=O)NO)nn1Cc1ccc(-c2ccccc2-c2nnn[nH]2)cc1 [Example 3-17, 1-((2′-(1H-tetrazol-5-yl)biphenyl-4-yl)methyl)-N-((2R,3R)-3-hydroxy-4-(hydroxyamino)-4-oxo-1-phenylbutan-2-yl)-5-propyl-1H-pyrazole-3-carboxamide] |
| ≤ 10 nM | ≤ 1000 nM | CCCc1cc(C(=O)N[C@H](Cc2ccccc2)[C@@H](O)C(=O)O)nn1Cc1ccc(-c2ccccc2-c2nc(=O)o[nH]2)cc1 [Example 16-2, (2R,3R)-2-Hydroxy-3-({1-[2′-(5-oxo-2,5-dihydro-[1,2,4]oxadiazol-3-yl)biphenyl-4-ylmethyl]-5-propyl-1H-pyrazole-3-carbonyl}amino)-4-phenylbutyric acid] |
| ≤ 10 nM | ≤ 10000 nM | CCCc1cc(C(=O)N[C@@H](CC(=O)O)Cc2ccccc2)nn1Cc1ccc(-c2ccccc2-c2nnn[nH]2)cc1 [Example 2, (R)-4-Phenyl-3-({5-propyl-1-[2′-(1H-tetrazol-5-yl)-biphenyl-4-ylmethyl]-1H-pyrazole-3-carbonyl}amino)butyric Acid] |
| ≤ 100 nM | ≤ 10000 nM | CCc1cc(C(=O)N[C@H](Cc2ccccc2)[C@@H](O)C(=O)O)nn1Cc1ccc(-c2ccccc2-c2nnn[nH]2)cc1F [Example 3-37, (2R,3R)-3-({5-Ethyl-1-[3-fluoro-2′-(1H-tetrazol-5-yl)-biphenyl-4-ylmethyl]-1H-pyrazole-3-carbonyl}amino)-2-hydroxy-4-phenylbutyric acid] |
| ≤ 10 nM | ≤ 10000 nM | CCCc1cc(C(=O)N[C@@H](CC(=O)OC)Cc2ccccc2)nn1Cc1ccc(-c2ccccc2-c2nnn[nH]2)cc1 [Example 3-27, (R)-4-Phenyl-3-({5-propyl-1-[2′-(1H-tetrazol-5-yl)-biphenyl-4-ylmethyl]-1H-pyrazole-3-carbonyl}amino)butyric acid methyl ester] |
